Data from ChEMBL document CHEMBL1140633, “The application of 3D-QSAR studies for novel cannabinoid ligands substituted at the C1' position of the alkyl side chain on the structural requirements for binding to cannabinoid receptors CB1 and CB2” (J Med Chem, 2007).

Tests used:
Cannabinoid receptor 1 = Cannabinoid receptor 1 (Homo sapiens, UniProt P21554); experiment: Binding affinity to CB1 receptor
Cannabinoid receptor 2 = Cannabinoid receptor 2 (Homo sapiens, UniProt P34972); experiment: Binding affinity to CB2 receptor
Chain of Cannabinoid receptor 2 (P34972 whole entry): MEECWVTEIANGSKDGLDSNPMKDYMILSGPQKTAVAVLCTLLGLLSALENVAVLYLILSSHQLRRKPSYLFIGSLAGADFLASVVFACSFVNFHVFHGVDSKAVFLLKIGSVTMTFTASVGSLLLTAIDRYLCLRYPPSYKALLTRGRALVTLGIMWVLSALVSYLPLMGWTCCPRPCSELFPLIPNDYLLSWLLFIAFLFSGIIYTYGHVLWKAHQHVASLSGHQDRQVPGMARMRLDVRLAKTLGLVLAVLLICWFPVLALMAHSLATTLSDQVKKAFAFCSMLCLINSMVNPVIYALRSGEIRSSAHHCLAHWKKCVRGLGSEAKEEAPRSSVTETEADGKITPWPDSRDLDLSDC

Chain of Cannabinoid receptor 1 (P21554 whole entry): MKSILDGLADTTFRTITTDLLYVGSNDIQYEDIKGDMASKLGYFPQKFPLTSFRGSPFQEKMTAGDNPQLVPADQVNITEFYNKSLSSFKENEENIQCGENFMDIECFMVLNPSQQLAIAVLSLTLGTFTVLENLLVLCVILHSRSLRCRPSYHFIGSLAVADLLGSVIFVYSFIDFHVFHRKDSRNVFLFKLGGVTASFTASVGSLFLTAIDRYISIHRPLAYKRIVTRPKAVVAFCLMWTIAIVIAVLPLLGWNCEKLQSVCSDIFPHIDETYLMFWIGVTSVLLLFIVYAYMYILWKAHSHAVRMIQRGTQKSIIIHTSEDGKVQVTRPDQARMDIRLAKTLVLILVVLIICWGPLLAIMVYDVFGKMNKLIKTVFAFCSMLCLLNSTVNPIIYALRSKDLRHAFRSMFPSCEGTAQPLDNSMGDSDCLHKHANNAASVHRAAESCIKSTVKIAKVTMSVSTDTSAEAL

SMILES	Ki (Cannabinoid receptor 1)	Ki (Cannabinoid receptor 2)
CC1=CC[C@@H]2[C@@H](C1)c1c(O)cc(-c3cccc4ccccc34)cc1OC2(C)C	0.0117 µM	0.00939 µM
C=C(C)C1CCC(C)=C[C@H]1c1c(O)cc(C2(C#N)CCCCC2)cc1O (stereo partly specified)	0.319 µM	0.111 µM
C=C(C)C1CCC(C)=C[C@H]1c1c(O)cc(C2(CCCCCC)CC2(Cl)Cl)cc1O (stereo partly specified)	0.666 µM	0.0329 µM
CCCCCCC1(c2cc(O)c3c(c2)OC(C)(C)[C@@H]2CC=C(C)C[C@@H]32)CC1	0.00044 µM	0.00086 µM
CCCCCCC1(c2cc(O)c3c(c2)OC(C)(C)[C@@H]2CC=C(C)C[C@@H]32)Sc2ccccc2S1	0.0569 µM	0.257 µM
C=C(CCCCCC)c1cc(O)c2c(c1)OC(C)(C)[C@@H]1CC=C(C)C[C@@H]21	0.00217 µM	0.0033 µM
CCCCCCC1(c2cc(O)c3c(c2)OC(C)(C)[C@@H]2CC=C(C)C[C@@H]32)SC(C)C(C)S1 (stereo partly specified)	0.0323 µM	0.0197 µM
CC1=CC[C@@H]2[C@@H](C1)c1c(O)cc(C(C)(C)C3CCCC3)cc1OC2(C)C	0.00034 µM	0.00039 µM
CCCCCCC(=O)c1cc(O)c2c(c1)OC(C)(C)[C@@H]1CC=C(C)C[C@@H]21	0.0217 µM	0.0837 µM
CCCCCCC1(c2cc(O)c3c(c2)OC(C)(C)[C@@H]2CC=C(C)C[C@@H]32)CCCC1	0.00045 µM	0.00192 µM
CCCCC(C)(C)c1cc(O)c2c(c1)OC(C)(C)[C@@H]1CC=C(C)C[C@@H]21	0.0039 µM	–
CCCCCCC1(c2cc(O)c3c(c2)OC(C)(C)[C@@H]2CC=C(C)C[C@@H]32)OCCO1	0.00052 µM	0.00022 µM
CCCCCC(C)(C)c1cc(O)c2c(c1)OC(C)(C)[C@@H]1CC=C(C)C[C@@H]21	0.0027 µM	–
CC1=CC[C@@H]2[C@@H](C1)c1c(O)cc(-c3ccc(C)cc3)cc1OC2(C)C	0.0955 µM	0.0718 µM
CC1=CC[C@@H]2[C@@H](C1)c1c(O)cc(C(C)(C)CCCCOc3ccc(C#N)cc3)cc1OC2(C)C	0.0015 µM	0.0011 µM
CC1=CC[C@@H]2[C@@H](C1)c1c(O)cc(C3(C#N)CCCC3)cc1OC2(C)C	0.0279 µM	0.0252 µM
CCCCCCCc1cc(O)c2c(c1)OC(C)(C)[C@@H]1CC=C(C)C[C@@H]21	0.022 µM	–
CC1=CC[C@@H]2[C@@H](C1)c1c(O)cc(C(C)(C)CCCCCC#N)cc1OC2(C)C	0.0002 µM	0.0029 µM
CC1=CC[C@@H]2[C@@H](C1)c1c(O)cc(Oc3ccccc3)cc1OC2(C)C	0.297 µM	0.0236 µM
C=C(C)C1CCC(C)=C[C@H]1c1c(O)cc(-c2cccc3ccccc23)cc1O (stereo partly specified)	0.754 µM	0.222 µM
C=C(C)C1CCC(C)=C[C@H]1c1c(O)cc(C2(CCCCCC)SCCS2)cc1O (stereo partly specified)	0.136 µM	0.0504 µM

SMILES	Ki (Cannabinoid receptor 1)	Ki (Cannabinoid receptor 2)
CC1=CC[C@@H]2[C@@H](C1)c1c(O)cc(C(C)(C)CCCCC(=O)NN3CCCCC3)cc1OC2(C)C	0.0045 µM	0.0032 µM
CC1=CC[C@@H]2[C@@H](C1)c1c(O)cc(CCCC(C)C)cc1OC2(C)C	0.141 µM	–
CCCCCCC1(c2cc(O)c3c(c2)OC(C)(C)[C@@H]2CC=C(C)C[C@@H]32)CC1(Cl)Cl (stereo partly specified)	0.00127 µM	0.00029 µM
C=C(C)C1CCC(C)=C[C@H]1c1c(O)cc(C2(CCCCCC)CC2)cc1O (stereo partly specified)	0.0587 µM	0.0992 µM
CCCCCCC1(c2cc(O)c3c(c2)OC(C)(C)[C@@H]2CC=C(C)C[C@@H]32)CC1(Br)Br (stereo partly specified)	0.00071 µM	0.00103 µM
CCCC(C)(C)c1cc(O)c2c(c1)OC(C)(C)[C@@H]1CC=C(C)C[C@@H]21	0.0109 µM	–
CC1=CC[C@@H]2[C@@H](C1)c1c(O)cc(C(C)(C)CCCCBr)cc1OC2(C)C	0.00043 µM	–
CC1=CC[C@@H]2[C@@H](C1)c1c(O)cc(C3(C#N)CCCCC3)cc1OC2(C)C	0.00826 µM	0.00386 µM
CCCCCCC1(c2cc(O)c3c(c2)OC(C)(C)[C@@H]2CC=C(C)C[C@@H]32)SCCS1	0.00032 µM	0.00052 µM
CC1=CC[C@@H]2[C@@H](C1)c1c(O)cc(C(C)(C)CCCCC#N)cc1OC2(C)C	0.00175 µM	0.0011 µM
CCCCCCC1(c2cc(O)c3c(c2)OC(C)(C)[C@@H]2CC=C(C)C[C@@H]32)SCCCS1	0.0018 µM	0.0036 µM
CCCc1ccc(-c2cc(O)c3c(c2)OC(C)(C)[C@@H]2CC=C(C)C[C@@H]32)cc1	0.0578 µM	0.108 µM
C=C(C)C1CCC(C)=C[C@H]1c1c(O)cc(-c2ccc(C)cc2)cc1O (stereo partly specified)	0.638 µM	0.374 µM
C=C(C)C1CCC(C)=C[C@H]1c1c(O)cc(C2(CCCCCC)CC2(Br)Br)cc1O (stereo partly specified)	0.189 µM	0.0633 µM
CCc1ccc(-c2cc(O)c3c(c2)OC(C)(C)[C@@H]2CC=C(C)C[C@@H]32)cc1	0.119 µM	0.0517 µM
CC1=CC[C@@H]2[C@@H](C1)c1c(O)cc(CCCCCN=[N+]=[N-])cc1OC2(C)C	0.019 µM	–
CC1=CC[C@@H]2[C@@H](C1)c1c(O)cc(C3SCCS3)cc1OC2(C)C	0.168 µM	0.103 µM
CC1=CC[C@@H]2[C@@H](C1)c1c(O)cc(C(C)(C)C)cc1OC2(C)C	0.014 µM	–
C=C(C)C1CCC(C)=C[C@H]1c1c(O)cc(C2(C#N)CCCC2)cc1O (stereo partly specified)	0.255 µM	0.105 µM
CC1=CC[C@@H]2[C@@H](C1)c1c(O)cc(C34CC5CC(CC(C5)C3)C4)cc1OC2(C)C	0.0068 µM	0.052 µM
CC1=CC[C@@H]2[C@@H](C1)c1c(O)cc(C(C)(C)C3CCCCCC3)cc1OC2(C)C	0.00094 µM	0.00022 µM
